In patent US10231958B2, “Methods and compositions for enhancing chemotherapy” (THE BOARD OF REGENTS OF THE UNIVERSITY OF TEXAS SYSTEM, priority 2015, dated 2019):

Experiments:
[1] = system: MDA-MB231 cells; experiment: Extracellular matrix invasion assay (Boyden chamber); type: cell-based, human; details: CM from sorafenib or sorafenib plus MMS/4-HC vs CM from MMS or 4-HC alone
Method: (§1) Quantification of MMP1 and MMP3 content in culture medium was assessed using RayBio-MMP3 and RayBio-MMP1 Elisa Kit (RayBiotech, Inc); IL8 was analyzed by Human IL-8 Elisa kit (Pierce Biotechnology). The levels of prostaglandin E2 (PGE2) were determined using the Prostaglandin E2 EIA Kit Monoclonal (Cayman Chemical Company). Culture media were diluted to fit within the standard curves. For conditioned media (CM) preparation for invasion and in vitro angiogenesis experiments, 12-well plated cells were treated with MMS (or MMS plus inhibitors) for 8 h in the presence of 10% FBS, twice washed with HBSS, and incubated with 700 μL drug/serum-free fresh medium for additional 12 h. Thereafter, the conditioned fresh medium was collected and directly used for migration and invasion experiments in order to reduce freezing associated loss of activity.
The invasion potential of breast cancer cells was estimated using the QCM™ 24-Well Cell Invasion Assay Fluorimetric (Millipore). Serum starved cells were trypsinized, trypsin-inhibited, centrifuged, resuspended to 5000 cells/μL, and 50 μL of this suspension (250,000 cells) was seeded on 8 μm pore size inserts coated with extracellular matrix in serum-free conditions. Afterwards, 200 μL conditioned (CM) or fresh medium without serum was added to top chambers. The bottom chamber consisted of 500 μL of DMEM supplemented with 10% FBS as chemoattractant. Cells were allowed to migrate for 24 h at 37° C. under 5% CO2. Invaded cells were detached from the bottom side of the insert, lysed and incubated with CyQuant GR fluorescent Dye for 15 min. Fluorescence was read at Ex/Em=480/520 nm. Percentage of invading cells was compared to cell number standard curves.

[2] = system: human endothelial cells; experiment: In vitro angiogenesis (Angiophase kit, CD31); type: cell-based; details: CM from sorafenib treatments
Method: as §1
The Angiophase kit (MBL Inc.) was used to assess the angiogenic potential of conditioned media (CM) from breast cancer cells or the direct effect of pharmaceutical inhibitors (free-drug system) on vessel-like structures formation in vitro. With this kit, human endothelial cells are co-cultured in a specially designed medium to form threadlike tubule structures. These gradually join up to form a network of anastomosing tubules, which resemble the capillary bed found in the CAM assay. Kit-provided cryopreserved co-culture of human endothelial cells were plated and kept for 96 h (proliferative phase) without treatments. Afterwards, the cells were maintained in the presence of conditioned medium from alkylating agent treated cells or control medium for a total of 14 days (angiogenic/vasculogenic phase). Medium was changed each 2 days. At the end of treatments, the cells were fixed and immune-stained for CD31 (PECAM-1), following by incubation with secondary antibody conjugate. ELISA was developed using the soluble substrate p-nitrophenyl-phosphate (p-NPP) whose product was colorimetrically read at 405 nm. After ELISA assays, the wells were washed with dH2O and tubule staining was performed by incubating CD31-stained tubules with the substrate BCIP/NBT, which form insoluble precipitates. Tubules were counted and photographed for qualitative monitoring.

[3] = system: Intracellular glutathione levels; experiment: Glutathione assay; type: cell-based
Method: Intracellular glutathione levels were measured using the Glutathione (GSH/GSSG/Total) Fluorometric Assay Kit (BioVision Incorporated, Calif.), following manufacturer protocol. Briefly, 1×10^6 cells were scraped in PBS and centrifuged. Pellets were resuspended in 100 μL Glutathione assay buffer. 60 μL of this homogenate was mixed with PCA (perchloric acid) and centrifuged. Supernatant containing small molecules including GSH were neutralized with KOH and 3 fractions were collected and separated to analyze reduced (GSH), oxidized (GSSG) and total glutathione forms (GSH+GSSG) by reaction with OPA probe (o-phthalaldehyde) in the presence or absence of GSH quencher or reducing agents depending on the compound to be determined. Fluorescence was monitored at Ex/Em=340/420 nm for 40 min. Glutathione forms were calculated and normalized by protein (Bradford's assay).

[4] = system: MEFs; experiment: Metabolomics of GSH metabolites in MEFs; type: cell-based, mouse; details: MMS 40 μg/mL
Method: The 2.4×10^6 Kc167 or 2×10^6 MEFs were seeded using complete growth medium on Day 0 in a T-175 cell culture flask and were allowed to grow for three days. After treatments with MMS (40 μg/mL), cells were harvested and centrifuged at 8 and 24 hours, and washed using ice-cold PBS. The cell numbers were adjusted to 90×10^6 (Kc167) or 24×10^6 (MEF) and provided as 100 μL of packed cell pellet for metabolic profiling. Metabolomic profiling and data analysis was provided through mView service performed by Metabolon Inc., Durham, N.C. Five biological replicates of each group were used for analysis at each time point. In addition, detailed changes in nucleotide pools were measured in a separate set of experiments. Nucleotide quantification and Metabolomics Pathway Enrichment Analyses were performed through MetaboAnalyst 2.0 (Xia et al., 2012, Nucleic Acids Res 40(Web Server issue), W127-33; Xia et al., 2009, Nucleic Acids Res 37(Web Server issue), W652-60).

[5] = system: protein sulfhydryl (protein-SH) groups; experiment: Protein sulfhydryl groups (dibromobimane assay); type: cell-based; details: 12 h treatment
Method: Protein reduced thiol groups (Protein-SH) were measured by dibromobimane assays with minor modifications (PMID:20463849). The 6-well plated cells (500,000 cells) were scraped in 0.6 mL PBS and 200 μL Perchloric acid (6 N) was added to precipitate proteins. The samples were incubated for 5 min in ice, centrifuged (14,000×g) Supernatants containing small peptides and glutathione were discarded and pellets were resuspended in 100 μL NaOH 0.1N, neutralized with 100 μL ice cold Perchloric acid (0.1 N), and 0.1 N PBS was added to keep pH constant. A stock solution of 4 mM dibromobimane in DMSO was added to a final concentration 40 μM, and incubated for 30 30 min at 37° C. Dibromobimane-protein fluorescence was measured at Ex=393 and, Em=477 nm.

[6] = system: MEFs; experiment: Gene expression microarray in MEFs; type: cell-based, mouse; details: 24 h
Method: For microarray, 7.5×10^6 Kc167 Drosophila cells or 5×10^6 wild-type MEFs were seeded in T-75 cell culture flask in complete growth medium one day before treatments. On the following day, the medium was replenished with fresh growth medium or medium consisting of MMS at 40 μg/mL. Cells were harvested and pelleted at different times post treatment (0, 1, 8, 24 and 72 h), washed using ice cold phosphate buffered saline (PBS) and the RNA was extracted using the RNeasy kit protocol (Qiagen). RNA integrity was assessed by denaturing formaldehyde agarose gel electrophoresis or by microanalysis (Agilent Bioanalyzer, Santa Clara, Calif.). Microarray service was provided by Expression Analysis Inc., Durham, N.C. Affymetrix GeneChip Drosophila Genome 2.0 Array was used for the experiment performed using Kc167 cells, and Affymetrix GeneChip Mouse Genome 430A 2.0 Array was used for experiment performed using MEFs. The microarray service provided by Expression Analysis Inc., included group comparison between experimental control and MMS treatment and time course analysis based on permutation analysis of differential expression (PADE). For statistical comparison, each experiment was performed in quadruplicate.

Compound | invasion with CM from treated cells [1] | angiogenesis with CM from treated cells [2] | glutathione metabolites ([3]; higher levels of MMS, as early as 8 h) | total GSH ([3]; lower levels of MMS (40 μg/mL)) | increase in methyl-GSH [4] [fold] | protein sulfhydryl residues [5] | up-regulation of CAT expression [6] [fold]
CNC(=O)c1cc(Oc2ccc(NC(=O)Nc3ccc(Cl)c(C(F)(F)F)c3)cc2)ccn1 [sorafenib, 4-[4-[[4-chloro-3-(trifluoromethyl)phenyl]carbamoylamino]phenoxy]-N-methyl-pyridine-2-carboxamide] | unable to invade Boyden Chambers | inhibition of angiogenesis | – | – | – | – | –
COS(C)(=O)=O [MMS, methyl-methanesulfonate] | – | – | depleted glutathione metabolites | able to keep or even increase their total GSH | 100 | deplete protein sulfhydryl residues | 2.7
